Results as given in patent US20210196673A1 (priority 2018, published 2021).
In brackets after ≈: the same amount, converted by molar mass. Read-outs that look alike come from different tables or passages of the source.

Assays:
[1] = biological target: SARS-CoV 3C-like protease (3CLPro) (Severe acute respiratory syndrome coronavirus, UniProt P0C6X7); conditions: cited from earlier work
[2] = biological target: SARS-CoV nucleocapsid (N) protein (Severe acute respiratory syndrome coronavirus, UniProt P59595); conditions: cited from earlier work
[3] = tested on: influenza virus; conditions: cited from earlier work
[4] = tested on: Vero cells; assay: Primary CPE assay in Vero cells (cytotoxicity, CC50); type: cell-based
[5] = biological target: transmembrane protease serine 2 (TMPRSS2) (Homo sapiens, UniProt O15393); conditions: in vitro study; cited from earlier work
[6] = tested on: SARS-CoV-2; assay: Secondary VYR (virus yield reduction) assay in Caco-2 cells; type: cell-based
Experimental: The secondary VYR assay in Caco-2 cells: Near-confluent cell culture monolayers of Caco-2 cells were prepared in 96-well disposable microplates the day before testing. Cells were maintained in MEM supplemented with 10% FBS. The same medium was used for antiviral assays and FBS was reduced to 2%, supplemented with 50-μg/ml gentamicin. EGCG was dissolved in serum-free MEM in a series of 2×dilutions from 100 μg/ml to 0.78 μg/ml. The EGCG diliutions were mixed and incubated with SARS-CoV-2 at 200 CCID50 (50% cell culture infectious dose) in 0.1 ml volume for 1 h prior to adding to the cell culture for 1 h absorption. Following absorption, the unabsorbed SARS-CoV-2 along with medium/EGCG was removed and fresh MEM was added to the cell culture for viral yield detection in comparison to untreated infection control. Five microwells were used per dilution: three for infected cultures and two for uninfected toxicity cultures. Controls for the experiment consist of six microwells that were infected and not treated (virus controls) and six that were untreated and uninfected (cell controls) on every plate. Medium devoid of virus was placed in toxicity control wells and cell control wells. Plates were incubated at 37° C. with 5% CO2 for 72 hours. A sample of supernatant was taken from each infected well (three replicate wells were pooled) and tested immediately. To evaluate toxicity, the plates were stained with 0.011% neutral red dye for approximately two hours at 37° C. in a 5% CO2 incubator. The neutral red medium was removed by complete aspiration, and the cells were rinsed 1× with phosphate buffered solution (PBS) to remove residual dye. The PBS is completely removed, and the incorporated neutral red was eluted with 50% Sorensen's citrate buffer/50% ethanol for at least 30 minutes. As larger the number of viable cells present in the wells, when the neutral red dye penetrated into the living cells, the more intense the red color appeared. The dye content in each well was quantified using a spectrophotometer at 540 nm wavelength. The dye content in each set of wells was converted to a percentage of dye present in untreated control wells using a Microsoft Excel computer-based spreadsheet and normalized based on the virus control. The 50% cytotoxic (CC50, cell-inhibitory) concentrations were then calculated by regression analysis.
The VYR test indicates how much EGCG inhibits virus entry and replication. Virus yielded in the presence of EGCG was titrated and compared to virus titers from the untreated virus controls. Titration of the viral samples (collected as described in the paragraph above) was performed by endpoint dilution (Reed-Muench method). Serial 1/10 dilutions of virus were made and plated into 4 replicate wells containing fresh cell monolayers of Vero 76 cells. Plates were then incubated, and cells were scored for the presence or absence of virus after distinct CPE was observed. The TCID50 values were calculated using the Reed-Muench method. The 90% (one log10) effective concentration (EC90) was calculated by regression analysis by plotting the log10 of the inhibitor concentration versus log10 of virus produced at each concentration. The quotient of CC50 divided by EC90 gave the selectivity index (SI) value. Compounds showing SI values ≥10 are considered active.

[7] = tested on: Caco-2 cells
[8] = tested on: SARS-CoV-2; assay: Primary CPE assay in Vero cells (antiviral)
[9] = Stability of powder and liquid forms; type: physicochemical; conditions: for stability of powder form on storage: 5° C.
[10] = tested on: MDCK cells; assay: Cell viability, MTT assay; type: cell-based; conditions: 1 hour incubation
Experimental: Cell Viability: This experiment tested if EC16 formulations were associated with cytotoxicity in MDCK cells. MDCK cells were cultured in a 96 well plate until confluent. MEM serum free medium, MEM medium with 10% carrier and 20% carrier (carrier controls), or MEM medium containing 0.1% EC16 and 10% or 20% carrier was added to the wells followed by a 1 hour incubation at 35° C. with 5% CO2. The medium was then changed to 200 μl fresh MEM serum free medium with 0.2 μg/ml trypsin in each well and incubated overnight under the same condition. The plate was removed from the cell culture incubator and an MTT assay was performed according to a method described previously (Yamamoto, T., et al., Anticancer Research, 24:3065-3073 (2004)).

[11] = tested on: H1N1 virus
[12] = tested on: H1N1 virus; type: cell-based, influenza A virus
[13] = tested on: H1N1 virus; type: cell-based, influenza A virus; remark: listed apart in the source
[14] = tested on: H1N1 virus; remark: listed apart in the source
[15] = tested on: H1N1 virus; type: cell-based, influenza A virus; remark: listed apart in the source
[16] = EGCG 50 μg/ml (0.005%), Caco-2 cells
[17] = EGCG 100 μg/ml (0.01%), Caco-2 cells

Sequence of transmembrane protease serine 2 (TMPRSS2) (O15393 whole entry): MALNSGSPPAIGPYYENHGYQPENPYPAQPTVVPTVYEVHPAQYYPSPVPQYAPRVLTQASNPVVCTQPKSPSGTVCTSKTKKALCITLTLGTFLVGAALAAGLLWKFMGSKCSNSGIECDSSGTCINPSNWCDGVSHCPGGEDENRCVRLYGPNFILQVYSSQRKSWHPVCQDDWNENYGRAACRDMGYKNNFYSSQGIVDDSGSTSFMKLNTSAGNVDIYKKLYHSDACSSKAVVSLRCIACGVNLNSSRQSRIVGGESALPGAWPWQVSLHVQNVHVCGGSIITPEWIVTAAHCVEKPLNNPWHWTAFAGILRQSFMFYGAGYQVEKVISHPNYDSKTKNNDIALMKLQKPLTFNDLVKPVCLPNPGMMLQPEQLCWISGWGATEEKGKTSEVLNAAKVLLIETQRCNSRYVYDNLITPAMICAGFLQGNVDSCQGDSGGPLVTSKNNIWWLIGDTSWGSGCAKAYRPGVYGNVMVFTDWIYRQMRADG
Sequence of SARS-CoV nucleocapsid (N) protein (P59595 whole entry, looked up): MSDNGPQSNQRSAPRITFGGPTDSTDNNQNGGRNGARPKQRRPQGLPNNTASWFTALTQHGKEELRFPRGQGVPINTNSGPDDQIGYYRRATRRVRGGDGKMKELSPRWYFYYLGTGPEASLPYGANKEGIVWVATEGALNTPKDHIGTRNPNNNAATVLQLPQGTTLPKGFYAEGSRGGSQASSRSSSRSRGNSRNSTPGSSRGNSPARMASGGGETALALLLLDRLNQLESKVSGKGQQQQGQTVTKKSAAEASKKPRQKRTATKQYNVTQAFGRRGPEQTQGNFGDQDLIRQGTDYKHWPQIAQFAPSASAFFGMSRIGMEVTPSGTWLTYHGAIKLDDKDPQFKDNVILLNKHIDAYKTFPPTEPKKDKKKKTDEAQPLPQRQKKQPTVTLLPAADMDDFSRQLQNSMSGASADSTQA

O=C(O[C@@H]1Cc2c(O)cc(O)cc2O[C@H]1c1cc(O)c(O)c(O)c1)c1cc(O)c(O)c(O)c1 [GCG, gallocatechin gallate]
inhibition of SARS-CoV 3C-like protease [1]: significantly inhibited
inhibitory effect against SARS-CoV nucleocapsid (N) protein [2]: remarkable inhibitory effect

O=C(O[C@@H]1Cc2c(O)cc(O)cc2O[C@@H]1c1cc(O)c(O)c(O)c1)c1cc(O)c(O)c(O)c1 [EGCG, (−)-epigallocatechin-3-gallate]
effect of direct contact with influenza virus ([3]; direct contact of EGCG with virus, cell culture): inactivation of viral infectivity
anti-viral activity after pre-incubation of cells ([3]; pre-incubation of cells with EGCG, no contact with the virus): does not show anti-viral activity
CC50 (NR) ([4]; neutral red (NR) readout): 2.3 µg/mL (≈ 5.02 µM)
CC50 (VIS) ([4]; visual (VIS) readout): 3.2 µg/mL (≈ 6.98 µM)
inhibition of 3C^pro activity [1]: 80%
inhibition of SARS-CoV 3C-like protease [1]: significantly inhibited
inhibition of TMPRSS2 [5]: inhibited TMPRSS2
concentration that inhibited 90% of viral yield (EC90) ([6]; Caco-2 cells, value of b285): 28 µg/mL
reduction in virus titer [6, 16]: 1.8 log 10
reduction of viral yield [6, 16]: 98.41%
reduction in virus titer [6, 17]: > 3.6 log 10
reduction of viral yield [6, 17]: > 99.975%
antiviral activity ([6]; EGCG at or lower than 25 μg/ml (0.0025%), Caco-2 cells): the activity was not detected
Viral titer of EGCG treated TCID50 values ([6]; concentration 0.78 μg/ml): 5.3 lon10
Viral titer of EGCG treated TCID50 values ([6]; concentration 1.56 μg/ml): 5.0 lon10
Viral titer of EGCG treated TCID50 values ([6]; concentration 3.13 μg/ml): 5.0 lon10
Viral titer of EGCG treated TCID50 values ([6]; concentration 6.25 μg/ml): 5.5 lon10
Viral titer of EGCG treated TCID50 values ([6]; concentration 12.5 μg/ml): 5.3 lon10
Viral titer of EGCG treated TCID50 values ([6]; concentration 25 μg/ml): 5.0 lon10
Viral titer of EGCG treated TCID50 values ([6]; concentration 50 μg/ml): 3.5 lon10
Viral titer of EGCG treated TCID50 values ([6]; concentration 100 μg/ml): <1.7 lon10
SIgo (CC50/EC90) ([6]; selectivity index): > 23
CC50 (cytotoxicity) ([7]; Caco-2 cells, neutral red, value of b285): > 100 µg/mL
CC50 ([7]; Neutral Red (Toxicity) assay, value of b289): > 100 µg/mL
EC50, inhibition of CPE (NR) ([8]; neutral red (NR) readout): 0.27 µg/mL
EC50, inhibition of CPE (VIS) ([8]; visual (VIS) readout): 0.23 µg/mL
stability in aqueous solution ([9]; aqueous solution): not stable
stability in dry powder form [9]: stable
stability of powder form on storage [9]: stable at 5 °C for two years

(−)-epigallocatechin-3-gallate-palmitate [EC16]
cell viability (MTT) versus MEM control ([10]; 0.1% EC16 in 10% carrier): not statistically different from the MEM control
cell viability (MTT) versus MEM control ([10]; 0.1% EC16 in 20% carrier): not statistically different from the MEM control
viral titer (viability), % of control ([11]; 0.01% EC16 in 10% carrier, 1 hour pre-treatment, n=4): 100%
infectivity, % of control ([11]; 0.01% EC16 in 20% carrier, 1 hour pre-treatment): 2.3%±0.9
infectivity, % of control ([11]; 0.1% EC16 in 10% carrier, 1 hour pre-treatment): 10.5%±3.6
reduction in titer ([11]; 0.1% EC16 in 20% carrier): 42 fold
infectivity, % of control ([11]; 0.1% EC16 in 20% carrier, 1 hour pre-treatment, n=7): 2.4%±1.6
viral titer in comparison to control ([11]; EC16 0 to 0.1% in 2% DMSO instead of carrier): did not result in a statistically significant difference
cells protected from H1N1 infection ([12]; 0.05% EC16, washed and 1 hour without EC16): 90%
block of H1N1 infection ([12]; 0.1% EC16, 2 hours after first application, washed and 1 hour without EC16): almost completely blocked
H1N1 infectivity, % of control ([13]; 0.01% EC16 in 10% carrier, 1 minute contact, n=3): 20.5%±17.1
H1N1 infectivity, % of control ([13]; 0.01% EC16 in 20% carrier, separate experiments): 7.3%±9.2
H1N1 infectivity, % of control ([13]; 0.1% EC16 in 10% carrier, 1 minute contact, first three replicates): 6.1%±3.0
H1N1 infectivity, % of control ([13]; 0.1% EC16 in 10% carrier, additional three replicate experiments): 3.8%±1.5
H1N1 infectivity, % of control ([13]; 0.1% EC16 in 10% carrier, overall mean (n=6)): 5.0%±2.4
H1N1 infectivity, % of control ([13]; 0.1% EC16 in 20% carrier, 1 minute contact): 2.4%±1.1
remaining viability (infectivity), mean ([14]; 0.01% EC16 in 10% carrier, 10 minutes): 48.4%±46.4
infectivity, mean % of control ([14]; 0.01% EC16 in 20% carrier, 30 minutes): 7.6%±7.2
infectivity, mean % of control ([14]; 0.1% EC16 in 10% carrier, 10 minutes): 9.5%±1.4
infectivity, mean % of control ([14]; 0.1% EC16 in 20% carrier, 10 minutes): 12.1%±5.8
infectivity, mean % of control ([14]; 0.1% EC16 in 20% carrier, 30 minutes): 0.9%±0.7
viral TCID50, % of control [15]: 15.4%±15.2
stability in dry powder form [9]: stable
stability in proper liquid formulations ([9]; liquid formulations): stable
stability of powder form on storage [9]: stable at 5 °C for two years
